Source: paper PMC5880808, “A lever-like transduction pathway for long-distance chemical- and mechano-gating of the mechanosensitive Piezo1 channel” (Nature Communications, 2018)

What was measured:
Human Piezo1 (hPiezo1) = molecular target: T1, Human Piezo1 (hPiezo1) (Homo sapiens, UniProt Q92508); assay: Fura-2 single-cell Ca2+ imaging of hPiezo1-expressing cells; format: cell-based
T1 construct: expressed in transfected cells; host or cells: HEK293T
Experimental: Fura-2 single-cell Ca^2+ imaging was performed according to the previous protocol. In brief, mCherry-Piezo1 cDNA (1 μg)-transfected HEK293T cells were plated onto 12-mm round glass coverslips, which were coated with poly-D-lysine and placed in 24-well plates, and subject to Fura-2 single-cell Ca^2+ imaging about 36 h post transfection. Cells were washed with buffer containing 1× HBSS (1.3 mM Ca^2+) and 10 mM HEPES (pH 7.2), incubated with 2.5 μM Fura-2 and 0.05% Pluronic F-127 (Life Technologies) for 30 min, then washed again with the previously mentioned buffer. The coverslip was mounted into an inverted Nikon-Tie microscope equipped with a CoolSNAP charge-coupled devise (CCD) camera and Lambda XL light box (Sutter Instrument), and mCherry-positive and -negative cells were selected for measurement of the 340/380 ratio with a ×20 objective (numerical aperture 0.75) using the MetaFluor Fluorescence Ratio Imaging software (Molecular Device).

[1] = molecular target: T2, mPiezo1 L1342A/L1345A mutant (Mus musculus, UniProt E2JF22, L1342A/L1345A); assay: Patch clamp (chemical-induced and stretch-induced currents), L1342A/L1345A mutant; format: cell-based; settings: Piezo1-KO-HEK cells for chemical-induced currents
T2 construct: The full-length mPiezo1 has 2547 amino acids in each monomer; expressed in transfected cells
Experimental: Protocols for HEK293T cell culture, transient transfection, and patch-clamp experiments with an Axopatch 200B amplifier (Axon Instruments) or HEKA EPC10 were essentially similar to how previously described[6],[8]. […] The extracellular solution was composed of (in mM) 133 NaCl, 3 KCl, 2.5 CaCl2, 1 MgCl2, 10 HEPES (pH 7.3 with NaOH), and 10 glucose. All experiments were carried out at room temperature. Currents were sampled at 20 kHz, filtered at 2 kHz using the Clampex 10.4 software (Axon Instruments) or Patchmaster software. Leak currents before mechanical stimulations were subtracted offline from the current traces.
Stock solutions of Jedi1 (100 mM), Jedi2 (100 mM), and Yoda1 (30 mM) were solubilized in DMSO and diluted to the desired final concentrations as indicated in the figure legends using external or internal solutions. […] In other conditions, the compounds were directly added to the recording chamber or pipette solution, and the currents were recorded within 10 min. […]
Stretch-activated currents were recorded in the cell-attached patch-clamp configuration as previously described. […] Stretch-activated channels were recorded at a holding potential of −80 mV with pressure steps from 0 to −100 mm Hg (−10 mm Hg increments), and 4–11 recording traces were averaged per cell for analysis. […]

[2] = tested on: mPiezo1 mutants L1342A/L1345A; L1342D/L1345D; L1342S/L1345S; L1342A; L1345A; assay: Single-cell Ca2+ imaging or FLIPR, L1342/L1345 mutants; format: cell-based, mouse; settings: all five mutants, 1 mM Jedi1, 30 μM Yoda1
Experimental: HEK293T cells were grown in Dulbecco’s modified Eagle medium containing 4.5 mg/ml glucose, 10% fetal bovine serum, and 1% penicillin/streptomycin. Cells were seeded in 50 μg/ml poly-D-lysine-coated 96-well plates (3 × 10^4 cells/well) and allowed to grow for about 18 h, and then co-transfected with a total of 250 ng cDNA containing Piezo1 or Piezo2 and GCaMP6s using Lipofectamine 2000 (Invitrogen, Life Technology). Two days after transfection the cells were washed with buffer containing 1× Hanks’ balanced salt solution (HBSS; 1.3 mM Ca^2+) and 10 mM HEPES (pH 7.2). The 96-well plates were then transferred to the FLIPR Tetra (Molecular Device) for monitoring the GCAMP6s fluorescence before and after addition of the compounds that were prepared in separate compound plates. […]
Fura-2 single-cell Ca^2+ imaging was performed according to the previous protocol. […] The coverslip was mounted into an inverted Nikon-Tie microscope equipped with a CoolSNAP charge-coupled devise (CCD) camera and Lambda XL light box (Sutter Instrument), and mCherry-positive and -negative cells were selected for measurement of the 340/380 ratio with a ×20 objective (numerical aperture 0.75) using the MetaFluor Fluorescence Ratio Imaging software (Molecular Device).

Piezo1 = tested on: Piezo1; design: method as in PMID 26001275; settings: read-out: estimated EC50; cited from earlier work
[3] = design: method as in PMID 26001275; settings: up; cited from earlier work
[4] = tested on: mPiezo1 loop deletion mutants ΔL15-16 (657-677) and ΔL19-20 (870–921); design: method as in PMID 29469092; settings: ΔL15-16 and ΔL19-20; cited from earlier work
[5] = tested on: mPiezo1 loop deletion mutants ΔL15-16 (657-677) and ΔL19-20 (870–921); design: method as in PMID 29469092; settings: ΔL15-16 and ΔL19-20; cited from earlier work; remark: listed apart in the source

T2 sequence (E2JF22 whole entry L1342A/L1345A): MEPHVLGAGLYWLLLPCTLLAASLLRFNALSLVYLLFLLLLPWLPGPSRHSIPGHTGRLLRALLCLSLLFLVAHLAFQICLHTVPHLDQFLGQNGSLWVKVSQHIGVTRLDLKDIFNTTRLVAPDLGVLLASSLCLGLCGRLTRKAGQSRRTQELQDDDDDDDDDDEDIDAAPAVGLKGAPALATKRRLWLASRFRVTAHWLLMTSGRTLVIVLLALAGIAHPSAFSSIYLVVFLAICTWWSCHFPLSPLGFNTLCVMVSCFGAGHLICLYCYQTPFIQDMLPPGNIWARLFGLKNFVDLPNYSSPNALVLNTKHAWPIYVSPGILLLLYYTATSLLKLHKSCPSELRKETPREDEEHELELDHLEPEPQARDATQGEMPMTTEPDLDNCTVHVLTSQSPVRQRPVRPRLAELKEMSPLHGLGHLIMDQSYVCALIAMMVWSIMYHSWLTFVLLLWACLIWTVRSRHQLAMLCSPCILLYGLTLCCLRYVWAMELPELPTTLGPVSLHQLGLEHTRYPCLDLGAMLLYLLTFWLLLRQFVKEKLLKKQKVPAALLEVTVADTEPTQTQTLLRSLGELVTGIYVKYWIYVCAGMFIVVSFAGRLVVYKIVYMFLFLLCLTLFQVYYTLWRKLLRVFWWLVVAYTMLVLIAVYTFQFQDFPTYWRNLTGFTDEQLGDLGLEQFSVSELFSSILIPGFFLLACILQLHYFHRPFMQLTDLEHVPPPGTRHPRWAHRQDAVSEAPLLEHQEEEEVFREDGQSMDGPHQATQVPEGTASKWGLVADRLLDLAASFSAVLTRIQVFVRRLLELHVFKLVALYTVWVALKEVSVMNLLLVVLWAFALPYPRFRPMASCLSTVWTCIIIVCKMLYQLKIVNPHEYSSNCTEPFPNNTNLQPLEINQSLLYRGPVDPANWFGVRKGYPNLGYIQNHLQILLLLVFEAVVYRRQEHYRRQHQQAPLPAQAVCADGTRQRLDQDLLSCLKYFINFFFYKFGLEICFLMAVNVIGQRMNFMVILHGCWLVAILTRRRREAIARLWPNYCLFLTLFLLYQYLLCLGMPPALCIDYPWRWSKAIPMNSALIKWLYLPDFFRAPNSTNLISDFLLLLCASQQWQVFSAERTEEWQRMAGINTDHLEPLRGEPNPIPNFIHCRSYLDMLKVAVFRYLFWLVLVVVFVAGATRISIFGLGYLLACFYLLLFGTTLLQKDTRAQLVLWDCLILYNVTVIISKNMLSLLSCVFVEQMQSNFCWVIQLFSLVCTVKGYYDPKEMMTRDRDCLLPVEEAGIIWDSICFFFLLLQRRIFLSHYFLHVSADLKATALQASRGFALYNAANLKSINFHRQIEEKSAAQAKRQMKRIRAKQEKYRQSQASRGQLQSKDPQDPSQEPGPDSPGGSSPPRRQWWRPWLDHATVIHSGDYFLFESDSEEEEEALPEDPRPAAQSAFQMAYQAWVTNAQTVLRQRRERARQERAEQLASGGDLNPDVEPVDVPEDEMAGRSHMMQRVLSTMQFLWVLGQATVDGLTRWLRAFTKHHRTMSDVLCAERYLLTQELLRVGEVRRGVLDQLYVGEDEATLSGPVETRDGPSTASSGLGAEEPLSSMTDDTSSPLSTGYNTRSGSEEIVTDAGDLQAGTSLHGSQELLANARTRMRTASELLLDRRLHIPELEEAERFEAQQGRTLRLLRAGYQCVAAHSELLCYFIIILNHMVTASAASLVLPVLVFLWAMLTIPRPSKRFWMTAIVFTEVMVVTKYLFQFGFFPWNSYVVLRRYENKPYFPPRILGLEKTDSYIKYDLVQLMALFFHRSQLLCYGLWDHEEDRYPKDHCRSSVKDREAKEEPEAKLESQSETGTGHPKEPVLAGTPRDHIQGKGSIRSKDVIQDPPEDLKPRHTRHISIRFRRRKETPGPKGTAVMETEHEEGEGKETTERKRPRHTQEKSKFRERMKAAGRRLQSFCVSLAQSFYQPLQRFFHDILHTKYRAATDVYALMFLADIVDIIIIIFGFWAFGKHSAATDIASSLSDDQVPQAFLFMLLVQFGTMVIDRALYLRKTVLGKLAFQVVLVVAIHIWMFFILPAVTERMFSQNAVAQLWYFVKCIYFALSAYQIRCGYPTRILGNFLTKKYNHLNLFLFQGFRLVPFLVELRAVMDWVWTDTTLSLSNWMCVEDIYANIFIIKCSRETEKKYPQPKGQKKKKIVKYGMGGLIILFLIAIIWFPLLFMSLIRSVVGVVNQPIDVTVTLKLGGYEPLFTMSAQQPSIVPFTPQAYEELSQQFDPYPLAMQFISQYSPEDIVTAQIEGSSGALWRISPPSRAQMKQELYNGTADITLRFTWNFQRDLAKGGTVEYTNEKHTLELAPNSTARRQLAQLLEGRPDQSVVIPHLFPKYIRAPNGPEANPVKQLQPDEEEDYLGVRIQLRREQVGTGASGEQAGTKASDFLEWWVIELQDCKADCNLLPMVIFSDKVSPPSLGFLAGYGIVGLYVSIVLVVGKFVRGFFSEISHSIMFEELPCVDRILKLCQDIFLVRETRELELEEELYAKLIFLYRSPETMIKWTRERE
T1 sequence (Q92508 whole entry): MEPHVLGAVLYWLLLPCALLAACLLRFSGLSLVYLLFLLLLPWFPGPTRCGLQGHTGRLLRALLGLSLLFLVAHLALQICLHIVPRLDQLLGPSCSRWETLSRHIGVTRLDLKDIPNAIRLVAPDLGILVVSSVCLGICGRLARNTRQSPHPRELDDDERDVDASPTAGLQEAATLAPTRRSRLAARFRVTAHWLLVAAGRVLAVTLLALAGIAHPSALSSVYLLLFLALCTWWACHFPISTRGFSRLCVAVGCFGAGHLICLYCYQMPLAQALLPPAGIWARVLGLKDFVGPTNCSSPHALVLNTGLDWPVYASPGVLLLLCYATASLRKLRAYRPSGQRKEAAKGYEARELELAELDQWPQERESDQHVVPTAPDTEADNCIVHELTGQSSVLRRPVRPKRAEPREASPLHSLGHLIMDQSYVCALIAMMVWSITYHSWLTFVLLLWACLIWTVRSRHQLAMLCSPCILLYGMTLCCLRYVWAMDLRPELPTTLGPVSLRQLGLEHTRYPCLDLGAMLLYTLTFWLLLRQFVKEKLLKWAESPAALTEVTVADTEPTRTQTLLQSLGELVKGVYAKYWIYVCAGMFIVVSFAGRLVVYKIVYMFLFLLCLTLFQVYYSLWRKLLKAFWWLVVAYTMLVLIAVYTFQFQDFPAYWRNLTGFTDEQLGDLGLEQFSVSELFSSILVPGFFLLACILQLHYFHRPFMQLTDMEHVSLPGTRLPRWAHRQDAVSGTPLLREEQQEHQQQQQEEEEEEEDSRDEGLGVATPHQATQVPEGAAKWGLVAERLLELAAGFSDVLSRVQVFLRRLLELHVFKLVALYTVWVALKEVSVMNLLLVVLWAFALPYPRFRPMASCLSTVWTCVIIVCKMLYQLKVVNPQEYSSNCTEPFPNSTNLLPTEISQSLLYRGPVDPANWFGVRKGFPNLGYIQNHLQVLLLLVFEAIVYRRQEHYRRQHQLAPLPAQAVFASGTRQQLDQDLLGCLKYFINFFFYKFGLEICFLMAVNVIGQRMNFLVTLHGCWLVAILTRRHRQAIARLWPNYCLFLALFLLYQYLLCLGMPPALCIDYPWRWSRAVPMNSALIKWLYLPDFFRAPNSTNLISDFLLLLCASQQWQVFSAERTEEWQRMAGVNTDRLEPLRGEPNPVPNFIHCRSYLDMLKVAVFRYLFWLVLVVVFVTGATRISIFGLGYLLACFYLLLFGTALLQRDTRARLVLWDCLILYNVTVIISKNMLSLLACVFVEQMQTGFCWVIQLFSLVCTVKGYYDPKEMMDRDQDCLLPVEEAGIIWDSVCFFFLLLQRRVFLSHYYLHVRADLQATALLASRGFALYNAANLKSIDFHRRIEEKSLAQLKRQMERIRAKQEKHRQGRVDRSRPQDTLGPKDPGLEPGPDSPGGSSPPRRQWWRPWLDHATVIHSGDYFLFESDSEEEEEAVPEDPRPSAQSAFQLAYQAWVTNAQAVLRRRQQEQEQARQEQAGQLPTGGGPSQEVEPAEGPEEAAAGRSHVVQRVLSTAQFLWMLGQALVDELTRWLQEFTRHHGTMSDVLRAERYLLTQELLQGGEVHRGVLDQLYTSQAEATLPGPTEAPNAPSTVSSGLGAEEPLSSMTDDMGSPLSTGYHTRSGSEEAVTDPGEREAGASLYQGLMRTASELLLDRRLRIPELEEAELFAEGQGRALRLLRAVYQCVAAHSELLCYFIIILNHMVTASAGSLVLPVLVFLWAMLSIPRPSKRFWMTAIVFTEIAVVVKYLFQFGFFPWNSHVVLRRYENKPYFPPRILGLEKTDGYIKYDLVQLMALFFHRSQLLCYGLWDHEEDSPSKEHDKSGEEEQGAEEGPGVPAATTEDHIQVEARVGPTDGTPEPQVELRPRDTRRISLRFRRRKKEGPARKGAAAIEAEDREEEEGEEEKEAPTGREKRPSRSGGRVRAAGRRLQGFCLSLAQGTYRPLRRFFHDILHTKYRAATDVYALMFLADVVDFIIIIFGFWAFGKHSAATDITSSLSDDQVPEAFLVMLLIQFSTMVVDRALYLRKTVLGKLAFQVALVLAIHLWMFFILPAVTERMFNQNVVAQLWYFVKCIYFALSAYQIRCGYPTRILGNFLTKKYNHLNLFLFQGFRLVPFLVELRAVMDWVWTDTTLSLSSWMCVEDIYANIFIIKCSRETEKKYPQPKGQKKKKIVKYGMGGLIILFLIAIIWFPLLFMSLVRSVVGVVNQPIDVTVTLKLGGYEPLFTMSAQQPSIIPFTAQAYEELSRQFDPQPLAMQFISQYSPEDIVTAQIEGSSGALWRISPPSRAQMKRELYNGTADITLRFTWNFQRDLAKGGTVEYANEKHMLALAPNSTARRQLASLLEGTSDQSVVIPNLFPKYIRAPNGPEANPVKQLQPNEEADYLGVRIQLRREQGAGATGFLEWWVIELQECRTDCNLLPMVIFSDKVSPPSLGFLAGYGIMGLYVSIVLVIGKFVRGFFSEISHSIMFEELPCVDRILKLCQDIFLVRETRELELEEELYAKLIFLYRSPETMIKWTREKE

Row | SMILES | Ca2+ response (Fura-2) (Human Piezo1 (hPiezo1)) | inward currents, stretching-current relationship and P50 of the L1342A/L1345A mutant [1] | compound-evoked Ca2+ responses of L1342/L1345 mutants [2] | EC50 (Piezo1) | water solubility [3] | ability to evoke Ca2+ responses in loop deletion mutants [4] | ability to potentiate poking-induced currents of loop deletion mutants [5]
1 | Cc1oc(-c2ccccc2)cc1C(=O)O [Jedi1] | responded to Jedi1 as well | neither elicited inward currents | completely lost | – | – | – | –
2 | Clc1cccc(Cl)c1CSc1nnc(-c2cnccn2)s1 [Yoda1, reference compound] | – | neither elicited inward currents | completely lost | ~17.1 µM | ~ 30 μM | retained its ability | retained its ability
